Laboratory results reported in US20230391760A1, “HETEROCYCLIC GLP-1 AGONISTS” (Gasherbrum Bio, Inc., priority 2020, published 2023).

molecular target: GLP-1 Receptor (Homo sapiens, UniProt P43220); assay: GLP-1R agonist cAMP stimulation assay (HEK293/GLP1R/CRE-LUC cells, cAMP dynamic 2 Kit); assay type: cell-based; conditions: HEK293/CRE-Luc cell line stably expressing the GLP-1 Receptor, 30 min at 37° C.
In short: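 HEK293 cells stably expressing human GLP-1R with CRE-luciferase, 1000 cells/well in DPBS with 0.5 mM IBMX and 0.1% BSA, treated with compound in 1/2-log serial dilution for 30 min at 37 °C. cAMP then detected by HTRF (cAMP-d2 plus anti-cAMP cryptate), 1 h at room temperature in the dark.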

GLP-1 Receptor, sequence (P43220 24-463, species assumed): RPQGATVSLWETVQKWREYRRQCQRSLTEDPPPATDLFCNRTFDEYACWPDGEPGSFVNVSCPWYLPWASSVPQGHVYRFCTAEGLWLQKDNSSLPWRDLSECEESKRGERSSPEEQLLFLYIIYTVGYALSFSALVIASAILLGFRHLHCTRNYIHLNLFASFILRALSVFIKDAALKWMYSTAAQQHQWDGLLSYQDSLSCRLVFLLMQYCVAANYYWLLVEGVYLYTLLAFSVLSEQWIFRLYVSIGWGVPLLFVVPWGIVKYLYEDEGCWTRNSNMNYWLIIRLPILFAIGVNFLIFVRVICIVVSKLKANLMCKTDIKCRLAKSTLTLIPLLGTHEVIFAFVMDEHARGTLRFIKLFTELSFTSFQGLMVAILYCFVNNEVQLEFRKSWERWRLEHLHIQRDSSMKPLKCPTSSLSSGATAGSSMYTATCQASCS

| Structure (SMILES) | EC50 [nM] |
| --- | --- |
| CC1(C(=O)Nc2ccc3c(c2)nc(CN2CCC(c4cccc(OCc5ccc(Cl)cc5F)n4)CC2)n3C[C@@H]2CCO2)CCCCO1 (stereo partly drawn) [Compound 183a, N-{2-[(4-{6-[(4-chloro-2-fluorophenyl)methoxy]pyridin-2-yl}piperidin-1-yl)methyl]-1-{[(2S)-oxetan-2-yl]methyl}-1H-1,3-benzodiazol-5-yl}-2-methyloxane-2-carboxamide] | 4 |
| CO[C@H](C)Cn1c(CN2CCC(c3cccc4c3O[C@@](C)(c3ccc(Cl)cc3F)O4)CC2)nc2cc(-c3nnc(C(F)(F)F)[nH]3)nnc21 [Compound 452a, 4-[(2S)-2-(4-chloro-2-fluorophenyl)-2-methyl-2H-1,3-benzodioxol-4-yl]-1-({7-[(2R)-2-methoxypropyl]-3-[5-(trifluoromethyl)-4H-1,2,4-triazol-3-yl]-7H-imidazo[4,5-c]pyridazin-6-yl}methyl)piperidine] | 0.14 |
| CC1(c2ccc(Cl)cn2)Oc2cccc(C3CCN(Cc4nc5cc(-c6nnc(C7CC7)[nH]6)cnc5n4C[C@@H]4CCO4)CC3)c2O1 (stereo partly drawn) [Compound 268a, 5-chloro-2-[4-(1-{[6-(5-cyclopropyl-4H-1,2,4-triazol-3-yl)-3-{[(2S)-oxetan-2-yl]methyl}-3H-imidazo[4,5-b]pyridin-2-yl]methyl}piperidin-4-yl)-2-methyl-2H-1,3-benzodioxol-2-yl]pyridine] | 4.2 |
| C[C@]1(c2ccc(Cl)cn2)Oc2cccc(C3CCN(Cc4nc5cc(-c6noc(=O)[nH]6)nnc5n4C[C@@H]4CCO4)CC3)c2O1 [Compound 463a, 3-[6-({4-[(2S)-2-(5-chloropyridin-2-yl)-2-methyl-2H-1,3-benzodioxol-4-yl]piperidin-1-yl}methyl)-7-{[(2S)-oxetan-2-yl]methyl}-7H-imidazo[4,5-c]pyridazin-3-yl]-4,5-dihydro-1,2,4-oxadiazol-5-one] | 0.35 |
| C[C@H](Cn1c(CN2CCC(c3cccc4c3O[C@@](C)(c3ccc(Cl)cn3)O4)CC2)nc2cc(-c3nnc(C(F)(F)F)[nH]3)ncc21)OC(F)F [Compound 476a, 5-chloro-2-[(2S)-4-[1-({3-[(2R)-2-(difluoromethoxy)propyl]-6-[5-(trifluoromethyl)-4H-1,2,4-triazol-3-yl]-3H-imidazo[4,5-c]pyridin-2-yl}methyl)piperidin-4-yl]-2-methyl-2H-1,3-benzodioxol-2-yl]pyridine] | 0.25 |
| CC1(c2ccc(Cl)cc2F)Oc2cccc(C3CCN(Cc4nc5cc(-c6nnc(C(F)(F)F)[nH]6)cnc5n4C[C@H]4CCOC4)CC3)c2O1 (stereo partly drawn) [Compound 401a, 4-[2-(4-chloro-2-fluorophenyl)-2-methyl-2H-1,3-benzodioxol-4-yl]-1-[(3-{[(3R)-oxolan-3-yl]methyl}-6-[5-(trifluoromethyl)-4H-1,2,4-triazol-3-yl]-3H-imidazo[4,5-b]pyridin-2-yl)methyl]piperidine] | 0.6 |
| O=C(O)CCc1ccc2c(c1)nc(CN1CC=C(c3cccc(OCc4ccc(Cl)cc4F)n3)CC1)n2C[C@@H]1CCO1 [Compound 113a, (S)-3-(2-((6-((4-chloro-2-fluorobenzyl)oxy)-3′,6′-dihydro-[2,4′-bipyridin]-1′(2′H)-yl)methyl)-1-(oxetan-2-ylmethyl)-1H-benzo[d]imidazol-5-yl)propanoic acid] | 38.2 |
| N#Cc1ccc(COc2cccc(C3=CCN(Cc4nc5cc(-c6noc(=O)[nH]6)cnc5n4C[C@@H]4CCO4)CC3)c2)c(F)c1 [Compound 318a, 3-fluoro-4-[(3-{1-[(3-{[(2S)-oxetan-2-yl]methyl}-6-(5-oxo-4,5-dihydro-1,2,4-oxadiazol-3-yl)-3H-imidazo[4,5-b]pyridin-2-yl)methyl]-1,2,3,6-tetrahydropyridin-4-yl}phenoxy)methyl]benzonitrile] | 10 |
| Cn1cc(-c2ccc3c(c2)nc(CN2CCC(c4cccc5c4OC(C)(c4ccc(Cl)cc4F)O5)CC2)n3C[C@@H]2CCO2)nn1 (stereo partly drawn) [Compound 238a, 2-((4-(2-(4-chloro-2-fluorophenyl)-2-methylbenzo[d][1,3]dioxol-4-yl)piperidin-1-yl)methyl)-5-(1-methyl-1H-1,2,3-triazol-4-yl)-1-(((S)-oxetan-2-yl)methyl)-1H-benzo[d]imidazole] | 0.12 |
| O=C(Nc1ccc2c(c1)nc(CN1CCC(c3cccc(OCc4ccc(Cl)cc4F)n3)CC1)n2C[C@@H]1CCO1)C1(C2CC2)CCCO1 (stereo partly drawn) [Compound 199a, N-{2-[(4-{6-[(4-chloro-2-fluorophenyl)methoxy]pyridin-2-yl}piperidin-1-yl)methyl]-1-{[(2S)-oxetan-2-yl]methyl}-1H-1,3-benzodiazol-5-yl}-2-cyclopropyloxolane-2-carboxamide] | 7.4 |
| Cc1cn(-c2ccc3c(c2)nc(CN2CCC(c4cccc(OCc5ccc(Cl)cc5F)n4)CC2)n3C[C@@H]2CCO2)nn1 [Compound 210a, 2-[(4-{6-[(4-chloro-2-fluorophenyl)methoxy]pyridin-2-yl}piperidin-1-yl)methyl]-5-(4-methyl-1H-1,2,3-triazol-1-yl)-1-{[(2S)-oxetan-2-yl]methyl}-1H-1,3-benzodiazole] | 4.2 |
| O=C(Nc1ccc2c(c1)nc(CN1CCC(c3cccc(OCc4ccc(Cl)cc4F)n3)CC1)n2C[C@@H]1CCO1)c1ccc(C2CC2)nc1 [Compound 176a, N-{2-[(4-{6-[(4-chloro-2-fluorophenyl)methoxy]pyridin-2-yl}piperidin-1-yl)methyl]-1-{[(2S)-oxetan-2-yl]methyl}-1H-1,3-benzodiazol-5-yl}-6-cyclopropylpyridine-3-carboxamide] | 8.6 |
| Fc1cc(Cl)ccc1COc1cccc(C2CCN(Cc3nc4cc(-c5cn[nH]n5)ccc4n3C[C@@H]3CCO3)CC2)n1 [Compound 149a, 2-[(4-{6-[(4-chloro-2-fluorophenyl)methoxy]pyridin-2-yl}piperidin-1-yl)methyl]-1-{[(2S)-oxetan-2-yl]methyl}-5-(2H-1,2,3-triazol-4-yl)-1H-1,3-benzodiazole] | 4.8 |
| CC1(c2ccc(Cl)cc2F)Oc2cccc(C3=CCN(Cc4nc5cc(-c6nnc(C(F)(F)F)[nH]6)ccc5n4C[C@@H]4CCO4)CC3)c2O1 (stereo partly drawn) [Compound 256a, 2-({4-[2-(4-chloro-2-fluorophenyl)-2-methyl-2H-1,3-benzodioxol-4-yl]-1,2,3,6-tetrahydropyridin-1-yl}methyl)-1-{[(2S)-oxetan-2-yl]methyl}-5-[5-(trifluoromethyl)-4H-1,2,4-triazol-3-yl]-1H-1,3-benzodiazole] | 0.23 |

The next compounds have a lower EC50 than those just listed; values first:

| EC50 [nM] | Structure (SMILES) |
| --- | --- |
| 0.084 | Fc1cc(Cl)ccc1COc1cccc(N2CCN(Cc3nc4cc(-c5nnc(C(F)(F)F)[nH]5)nnc4n3C[C@@H]3CCO3)CC2)n1 [Compound 492a, 1-{6-[(4-chloro-2-fluorophenyl)methoxy]pyridin-2-yl}-4-[(7-{[(2S)-oxetan-2-yl]methyl}-3-[5-(trifluoromethyl)-4H-1,2,4-triazol-3-yl]-7H-imidazo[4,5-c]pyridazin-6-yl)methyl]piperazine] |
| 0.043 | N#Cc1ccc(COc2nc(C3CCN(Cc4nc5cc(-c6nnc(C(F)(F)F)[nH]6)nnc5n4C[C@@H]4CCO4)CC3)ccc2F)c(F)c1 [Compound 517a, 3-fluoro-4-{[(3-fluoro-6-{1-[(7-{[(2S)-oxetan-2-yl]methyl}-3-[5-(trifluoromethyl)-4H-1,2,4-triazol-3-yl]-7H-imidazo[4,5-c]pyridazin-6-yl)methyl]piperidin-4-yl}pyridin-2-yl)oxy]methyl}benzonitrile] |
| 0.018 | C[C@H]1CN(c2cccc(OCc3ccc(Cl)cc3F)n2)CCN1Cc1nc2cc(-c3nnc(C(F)(F)F)[nH]3)ncc2n1C[C@@H]1CCO1 [Compound 480a, (2S)-4-{6-[(4-chloro-2-fluorophenyl)methoxy]pyridin-2-yl}-2-methyl-1-[(3-{[(2S)-oxetan-2-yl]methyl}-6-[5-(trifluoromethyl)-4H-1,2,4-triazol-3-yl]-3H-imidazo[4,5-c]pyridin-2-yl)methyl]piperazine] |
| 0.034 | Fc1cc(C(F)(F)F)ccc1COc1cccc(C2CCN(Cc3nc4cc(-c5nnc(C(F)(F)F)[nH]5)ncc4n3C[C@@H]3CCO3)CC2)n1 [Compound 497a, 2-{[2-fluoro-4-(trifluoromethyl)phenyl]methoxy}-6-{1-[(3-{[(2S)-oxetan-2-yl]methyl}-6-[5-(trifluoromethyl)-4H-1,2,4-triazol-3-yl]-3H-imidazo[4,5-c]pyridin-2-yl)methyl]piperidin-4-yl}pyridine] |
| 0.11 | Cc1nnc(-c2cc3nc(CN4CCC(c5cccc6c5O[C@@](C)(c5ccc(Cl)cc5F)O6)CC4)n(C[C@@H]4CCO4)c3nn2)[nH]1 [Compound 280a, 4-[(2S)-2-(4-chloro-2-fluorophenyl)-2-methyl-2H-1,3-benzodioxol-4-yl]-1-{[3-(5-methyl-4H-1,2,4-triazol-3-yl)-7-{[(2S)-oxetan-2-yl]methyl}-7H-imidazo[4,5-c]pyridazin-6-yl]methyl}piperidine] |
| 0.014 | CC1(c2ccc(Cl)cc2F)Oc2cccc(C3CCN(Cc4nc5cc(-c6nnc(C(F)(F)F)[nH]6)cnc5n4C[C@@H]4CCO4)CC3)c2O1 (single isomer, unassigned) [Compound 224c] |
| 0.11 | CC1(c2ccc(Cl)cc2F)Oc2cccc(C3CCN(Cc4nc5cc(-c6cn(CCC(=O)O)nn6)ccc5n4C[C@@H]4CCO4)CC3)c2O1 (stereo partly drawn) [Compound 251a, 3-{4-[2-({4-[2-(4-chloro-2-fluorophenyl)-2-methyl-2H-1,3-benzodioxol-4-yl]piperidin-1-yl}methyl)-1-{[(2S)-oxetan-2-yl]methyl}-1H-1,3-benzodiazol-5-yl]-1H-1,2,3-triazol-1-yl}propanoic acid] |
| 0.066 | CSc1nnc(-c2ccc3c(c2)nc(CN2CCC(c4cccc5c4OC(C)(c4ccc(Cl)cc4F)O5)CC2)n3C[C@@H]2CCO2)[nH]1 (stereo partly drawn) [Compound 252a, 2-({4-[2-(4-chloro-2-fluorophenyl)-2-methyl-2H-1,3-benzodioxol-4-yl]piperidin-1-yl}methyl)-5-[5-(methylsulfanyl)-4H-1,2,4-triazol-3-yl]-1-{[(2S)-oxetan-2-yl]methyl}-1H-1,3-benzodiazole] |
